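Values below derive from 48-hour exposures of cells grown in 96-well plates, with endpoints linearly interpolated between the two concentrations bracketing the appropriate inhibition level. At the GI50, growth is halved.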 Calls of active or inactive are those of the source. No stated cut-off is given here; in the data, active = GI50 up to about 1.1 µM and inactive = higher.
How the values were obtained:
Experiment in all cases: DTP human tumour cell line panel, 48 h
786-0 = system: 786-0
A498 = system: A498
CCRF-CEM = system: CCRF-CEM
EKVX = system: EKVX
HCT-116 = system: HCT-116
HOP-92 = system: HOP-92
HT-29 = system: HT-29
IGROV-1 = system: IGROV-1
KM12 = system: KM12
LOX IMVI = system: LOX IMVI
M14 = system: M14
MDA-MB-231 = system: MDA-MB-231
MOLT-4 = system: MOLT-4
NCI-H23 = system: NCI-H23
NCI-H522 = system: NCI-H522
OVCAR-8 = system: OVCAR-8
SF-295 = system: SF-295
TK-10 = system: TK-10
UACC-62 = system: UACC-62
HCC 2998 = system: HCC 2998

Measured: GI50

O=C(O)c1ccccc1C1c2ccccc2Oc2ccccc21
inactive: 786-0 49.5 µM | A498 27.7 µM | CCRF-CEM > 100 µM | EKVX 49.2 µM | HCT-116 45.3 µM | HOP-92 19.1 µM | HT-29 74.6 µM | IGROV-1 76 µM | KM12 62.2 µM | LOX IMVI 98.4 µM | M14 > 100 µM | MDA-MB-231 > 100 µM | MOLT-4 38.9 µM | NCI-H23 39.7 µM | NCI-H522 26.8 µM | OVCAR-8 96.6 µM | SF-295 40.2 µM | TK-10 > 100 µM | UACC-62 25.8 µM

NNc1nnc(-c2nnc(NN)o2)o1
inactive: 786-0 > 10 µM | A498 > 10 µM | CCRF-CEM > 10 µM | EKVX > 10 µM | HCC 2998 > 10 µM | HCT-116 > 10 µM | HOP-92 > 10 µM | HT-29 > 10 µM | IGROV-1 > 10 µM | KM12 > 10 µM | M14 > 10 µM | MDA-MB-231 > 10 µM | MOLT-4 > 10 µM | NCI-H23 > 10 µM | OVCAR-8 > 10 µM | SF-295 > 10 µM | TK-10 > 10 µM | UACC-62 > 10 µM

CCOC(=O)NC(=S)NN(C)C1=NCC(C)(C)S1
inactive: 786-0 > 100 µM | A498 > 100 µM | CCRF-CEM > 100 µM | EKVX > 100 µM | HCT-116 > 100 µM | HOP-92 > 100 µM | IGROV-1 > 100 µM | KM12 > 100 µM | LOX IMVI > 100 µM | MDA-MB-231 > 100 µM | MOLT-4 > 100 µM | NCI-H522 > 100 µM | SF-295 > 100 µM | TK-10 > 100 µM | UACC-62 > 100 µM

C[C@H]1[C@H](C)N(Cc2ccccc2)P(=O)(C(O)/C=C/c2ccccc2)N1Cc1ccccc1 (some centres undefined)
inactive: 786-0 5.32 µM | A498 5.45 µM | EKVX 7.67 µM | HCC 2998 6.3 µM | HCT-116 5.21 µM | HOP-92 7.18 µM | HT-29 5.24 µM | IGROV-1 8.32 µM | KM12 8.91 µM | LOX IMVI 6.76 µM | M14 4.62 µM | MDA-MB-231 6.12 µM | MOLT-4 8.73 µM | NCI-H23 9.84 µM | NCI-H522 5.83 µM | OVCAR-8 8.53 µM | SF-295 6.95 µM | TK-10 7.01 µM | UACC-62 4.18 µM

CN1C2CCC1CC(CC(=O)NC(c1ccc(F)cc1)c1ccc(F)cc1)C2 (centres undefined)
inactive: 786-0 64.7 µM | A498 > 100 µM | CCRF-CEM 2.2 µM | EKVX > 100 µM | HCT-116 59.7 µM | HOP-92 60 µM | HT-29 38.6 µM | IGROV-1 > 100 µM | KM12 > 100 µM | LOX IMVI 80 µM | M14 18 µM | MDA-MB-231 > 100 µM | MOLT-4 81.1 µM | NCI-H23 > 100 µM | NCI-H522 > 100 µM | OVCAR-8 > 100 µM | SF-295 > 100 µM | TK-10 > 100 µM

C=C[C@@]1(O)CCCC[C@@H]1CC(Sc1ccccc1)Sc1ccccc1
inactive: 786-0 22.2 µM | A498 24.4 µM | CCRF-CEM 30.6 µM | EKVX 15.3 µM | HCC 2998 13 µM | HCT-116 15.6 µM | HT-29 19.4 µM | IGROV-1 14.9 µM | KM12 16.9 µM | LOX IMVI 19.6 µM | M14 19.4 µM | MDA-MB-231 17.1 µM | MOLT-4 31.1 µM | NCI-H23 17.2 µM | NCI-H522 13.4 µM | OVCAR-8 17.9 µM | SF-295 14.7 µM | TK-10 15.7 µM | UACC-62 8.59 µM

CC1CCCC(C(O)CC2CC(=O)NC(=O)C2)C1O (centres undefined)
inactive: 786-0 > 100 µM | A498 > 100 µM | CCRF-CEM > 100 µM | EKVX > 100 µM | HCC 2998 > 100 µM | HCT-116 > 100 µM | HOP-92 > 100 µM | HT-29 > 100 µM | IGROV-1 > 100 µM | KM12 > 100 µM | LOX IMVI > 100 µM | M14 > 100 µM | MDA-MB-231 > 100 µM | MOLT-4 > 100 µM | NCI-H23 > 100 µM | OVCAR-8 > 100 µM | SF-295 > 100 µM | TK-10 > 100 µM | UACC-62 > 100 µM

CC1CCC(O)(C(C)(C(=O)O)c2ccccc2)CC1 (centres undefined)
inactive: 786-0 > 100 µM | A498 68.4 µM | CCRF-CEM 82.8 µM | EKVX > 100 µM | HCT-116 > 100 µM | HOP-92 83.9 µM | HT-29 > 100 µM | IGROV-1 > 100 µM | KM12 > 100 µM | LOX IMVI > 100 µM | M14 49 µM | MDA-MB-231 > 100 µM | MOLT-4 22 µM | NCI-H23 > 100 µM | NCI-H522 > 100 µM | OVCAR-8 > 100 µM | SF-295 > 100 µM | TK-10 > 100 µM | UACC-62 > 100 µM

O=C(Nc1nccs1)NS(=O)(=O)n1cnc2ccccc21
inactive: 786-0 > 100 µM | A498 > 100 µM | CCRF-CEM > 100 µM | EKVX > 100 µM | HCC 2998 > 100 µM | HCT-116 > 100 µM | HOP-92 > 100 µM | HT-29 > 100 µM | IGROV-1 > 100 µM | KM12 > 100 µM | M14 > 100 µM | MDA-MB-231 > 100 µM | MOLT-4 > 100 µM | NCI-H23 > 100 µM | NCI-H522 > 100 µM | OVCAR-8 > 100 µM | SF-295 > 100 µM | TK-10 > 100 µM | UACC-62 > 100 µM

NC(=O)C(=CNC(=S)Nc1cccc(C(F)(F)F)c1)C(N)=O
inactive: 786-0 > 100 µM | A498 > 100 µM | CCRF-CEM > 100 µM | HCC 2998 > 100 µM | HCT-116 > 100 µM | HOP-92 > 100 µM | HT-29 > 100 µM | KM12 > 100 µM | LOX IMVI > 100 µM | M14 > 100 µM | MDA-MB-231 > 100 µM | MOLT-4 > 100 µM | NCI-H23 > 100 µM | OVCAR-8 > 100 µM | SF-295 > 100 µM | TK-10 > 100 µM | UACC-62 > 100 µM

CCc1cccc2c3c([nH]c12)-c1ccccc1NC(=O)C3
inactive: 786-0 > 100 µM | A498 19.5 µM | CCRF-CEM > 100 µM | EKVX > 100 µM | HOP-92 > 100 µM | HT-29 > 100 µM | IGROV-1 > 100 µM | KM12 7.06 µM | LOX IMVI 72.9 µM | M14 > 100 µM | MDA-MB-231 5.66 µM | MOLT-4 8.89 µM | NCI-H23 > 100 µM | OVCAR-8 > 100 µM | SF-295 > 100 µM | TK-10 > 100 µM | UACC-62 65.9 µM
